Measured values reported in the NIST ThermoML archive (doi:10.1016/j.jct.2013.11.021).

Assay: mn = molality of the nth substance listed, in mol/kg
Details: 101 kPa, Liquid; for speed of sound: Sing-around technique in a fixed-path interferometer; for mass density: Vibrating tube method

O=C[C@H](O)[C@H](O)[C@H](O)CO [D-ribose] + O
Details | mass density, 298.15 K [kg/m3] | mass density, 303.15 K [kg/m3] | mass density, 308.15 K [kg/m3] | mass density, 313.15 K [kg/m3] | mass density, 318.15 K [kg/m3] | speed of sound, 298.15 K [m/s] | speed of sound, 303.15 K [m/s] | speed of sound, 308.15 K [m/s] | speed of sound, 313.15 K [m/s] | speed of sound, 318.15 K [m/s]
m1 = 0.0504 | 999.789 | 998.382 | 996.751 | 994.911 | 992.887 | 1498.8 | 1511.5 | 1521.3 | 1531.3 | 1538.2
m1 = 0.06883 | 1000.78 | 999.363 | 997.73 | 995.882 | 993.852 | 1499.8 | 1512.3 | 1522.2 | 1532.1 | 1539
m1 = 0.08626 | 1001.7 | 1000.29 | 998.651 | 996.793 | 994.758 | 1500.7 | 1513.1 | 1523 | 1532.9 | 1539.7
m1 = 0.1107 | 1003 | 1001.58 | 999.932 | 998.065 | 996.017 | 1502 | 1514.3 | 1524.1 | 1534 | 1540.7
m1 = 0.136 | 1004.33 | 1002.89 | 1001.25 | 999.37 | 997.311 | 1503.3 | 1515.5 | 1525.3 | 1535.1 | 1541.8
m1 = 0.1566 | 1005.39 | 1003.96 | 1002.31 | 1000.41 | 998.355 | 1504.4 | 1516.5 | 1526.3 | 1536 | 1542.7
